Reference: patent US20240342320A1, “POLYPEPTIDE TARGETING INTEGRIN ALPHA 6 AND USE THEREOF” (GUANGZHOU GENBIONOVA MEDICAL TECHNOLOGY CO., LTD., priority 2021, published 2024)
Read-outs that look alike come from different tables or passages of the source. Positions of bridges follow the written chain, without caps; N, C: chain ends. Non-standard residues stand in square brackets, D forms with d. Residues, ends and D or L forms follow the SMILES beside them. *: point of attachment. NOTA = O=C(O)CN1CCN(CC(=O)O)CCN(CC(=O)*)CC1; PEG4 = NCCOCCOCCOCCOCCC(=O)O

Tests used:
integrin α6β4 [1] = biological target: T1, integrin α6β4 (Homo sapiens, UniProt P16144+P23229); assay: Microscale thermophoresis (MST) affinity to integrin α6β4; format: binding; settings: MST
T1 sequence (P23229 24-1050 limits assumed): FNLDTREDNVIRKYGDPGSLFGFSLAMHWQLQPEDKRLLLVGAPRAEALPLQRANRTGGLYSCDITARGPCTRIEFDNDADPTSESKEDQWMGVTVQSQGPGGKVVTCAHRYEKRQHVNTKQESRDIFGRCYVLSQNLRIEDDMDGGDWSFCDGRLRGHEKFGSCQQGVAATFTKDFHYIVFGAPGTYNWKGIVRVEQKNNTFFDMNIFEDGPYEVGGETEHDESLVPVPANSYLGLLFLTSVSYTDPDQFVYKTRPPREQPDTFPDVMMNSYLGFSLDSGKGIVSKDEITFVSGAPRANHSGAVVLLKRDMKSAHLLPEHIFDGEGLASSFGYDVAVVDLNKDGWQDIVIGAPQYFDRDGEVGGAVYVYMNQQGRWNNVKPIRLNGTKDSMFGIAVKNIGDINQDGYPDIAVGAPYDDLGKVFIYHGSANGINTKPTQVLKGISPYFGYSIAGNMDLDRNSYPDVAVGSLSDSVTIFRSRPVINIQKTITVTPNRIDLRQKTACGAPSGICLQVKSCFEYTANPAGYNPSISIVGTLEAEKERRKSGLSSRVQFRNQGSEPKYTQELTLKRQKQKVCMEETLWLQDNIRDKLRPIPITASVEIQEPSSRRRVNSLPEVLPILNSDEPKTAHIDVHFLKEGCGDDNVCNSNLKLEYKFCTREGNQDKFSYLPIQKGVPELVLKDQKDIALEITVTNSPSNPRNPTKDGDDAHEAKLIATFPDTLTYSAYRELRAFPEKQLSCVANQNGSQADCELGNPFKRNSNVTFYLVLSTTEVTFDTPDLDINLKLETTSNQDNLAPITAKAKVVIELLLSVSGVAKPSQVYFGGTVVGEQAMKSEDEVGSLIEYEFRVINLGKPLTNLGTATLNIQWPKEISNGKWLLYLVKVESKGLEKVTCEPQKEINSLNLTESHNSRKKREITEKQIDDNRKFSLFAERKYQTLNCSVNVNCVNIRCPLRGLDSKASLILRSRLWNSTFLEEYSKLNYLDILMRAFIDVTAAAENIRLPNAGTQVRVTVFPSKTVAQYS
T1 sequence (P16144 28-710 partner limits assumed): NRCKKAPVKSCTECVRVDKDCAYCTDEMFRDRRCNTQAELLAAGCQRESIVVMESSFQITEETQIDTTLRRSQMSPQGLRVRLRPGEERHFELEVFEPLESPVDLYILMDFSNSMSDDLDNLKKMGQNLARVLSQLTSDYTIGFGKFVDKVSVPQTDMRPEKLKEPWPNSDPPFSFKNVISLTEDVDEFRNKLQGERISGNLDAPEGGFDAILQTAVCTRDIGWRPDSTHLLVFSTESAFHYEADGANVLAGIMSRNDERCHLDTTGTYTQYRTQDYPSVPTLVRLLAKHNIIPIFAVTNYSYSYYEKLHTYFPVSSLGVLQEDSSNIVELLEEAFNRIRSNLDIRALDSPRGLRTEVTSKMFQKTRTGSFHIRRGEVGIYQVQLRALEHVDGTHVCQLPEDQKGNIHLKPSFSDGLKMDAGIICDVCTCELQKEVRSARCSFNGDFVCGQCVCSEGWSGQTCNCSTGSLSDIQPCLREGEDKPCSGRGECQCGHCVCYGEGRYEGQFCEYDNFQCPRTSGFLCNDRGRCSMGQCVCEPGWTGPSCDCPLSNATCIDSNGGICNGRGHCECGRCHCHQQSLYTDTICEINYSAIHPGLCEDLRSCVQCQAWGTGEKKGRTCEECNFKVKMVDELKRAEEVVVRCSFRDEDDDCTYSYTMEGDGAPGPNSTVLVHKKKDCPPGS
Experimental: (§1) The affinity between these 18 polypeptides and integrin α6β4 was detected by microscale thermophoresis (MST) method as follows: • 1) Integrin α6β4 protein was dissolved to 800 nM, and polypeptide was dissolved to 100 μM. • 2) A RED-tris-NTA second-generation dye was diluted to 100 nM by using the MO series RED-tris-NTA protein labeling kit. • 3) 100 μl α6β4 protein was mixed with 50 μl dye and incubated at room temperature for 30 min, so that the α6β4 protein binds to the dye. • 4) 10 μl polypeptide was transferred into a PCR tube, and was diluted with PBST (containing 0.05% Tween 20) at a ratio of 1:1 to 16 gradients of concentrations. • 5) 3 μl protein/dye mixture was transferred into a PCR tube, 3 μl of 16 different concentrations of polypeptides was respectively added and mixed well. • 6) The mixture was absorbed by capillary and loaded on machine (instrument model Monolith NT.115) to assay, parameters were set as 80% LED/excitation power and medium MST power. • 7) MO. Affinity Analysis software was used to calculate the equilibrium dissociation constant KD between α6β4 protein and polypeptide by KD fitting mode.

integrin α6β4 [2] = biological target: T2, integrin α6β4 (Homo sapiens, UniProt P23229); assay: as above; format: binding; settings: for Affinity relative to RWY: relative to CRWYDENAC (RWY) = 1.00
T2 sequence (P23229 24-1050 limits assumed): T1 sequence (P23229 24-1050 limits assumed)
T2 sequence (P16144 28-710 partner limits assumed): T1 sequence (P16144 28-710 partner limits assumed)
Experimental: as §1

[3] = integrin α6β4, determination 1, read-out: KD (um) 1
[4] = integrin α6β4, determination 2, read-out: KD (um) 2
[5] = integrin α6β4, determination 3, read-out: KD (um) 3
[6] = integrin α6β4, mean of 3, read-out: KD Mean value (μm)

Row | Compound | Kd (integrin α6β4 [1]; [3]) [µM] | Kd (integrin α6β4 [1]; [4]) [µM] | Kd (integrin α6β4 [1]; [5]) [µM] | Kd (integrin α6β4 [1]; integrin α6β4, read-out: KD) [µM] | Affinity relative to RWY (integrin α6β4 [2]) | Kd (integrin α6β4 [1]; [6]) [µM] | Kd (integrin α6β4 [2]; MST, integrin α6β4) [µM]
1 | C[C@@H]1NC(=O)[C@H](CC(N)=O)NC(=O)[C@H](CCC(=O)O)NC(=O)[C@H](CC(=O)O)NC(=O)[C@H](Cc2ccc(O)cc2)NC(=O)[C@H](Cc2c[nH]c3ccccc23)NC(=O)[C@H](CCCNC(=N)N)NC(=O)[C@@H](N)CSSC[C@@H](C(=O)O)NC1=O [P1, CRWYDENAC] (H-CRWYDENAC-OH; disulfide 1-9; N-terminus and C-terminus assumed) | 8.59 | 6.52 | 5.81 | 6.97 ± 1.44 | 1.00 |  | 
2 | C[C@@H]1NC(=O)[C@H](CC(N)=O)NC(=O)[C@H](CCC(=O)O)NC(=O)[C@H](CC(=O)O)NC(=O)[C@H](Cc2ccc(O)cc2)NC(=O)[C@H](Cc2c[nH]c3ccccc23)NC(=O)[C@H](C)NC(=O)[C@@H](N)CSSC[C@@H](C(=O)O)NC1=O [P2, CAWYDENAC] (H-CAWYDENAC-OH; disulfide 1-9; N-terminus and C-terminus assumed) | 4.03 | 12.1 | 3.58 |  | 1.06 | 6.58 | 
3 | C[C@@H]1NC(=O)[C@H](CC(N)=O)NC(=O)[C@H](CCC(=O)O)NC(=O)[C@H](CC(=O)O)NC(=O)[C@H](Cc2ccc(O)cc2)NC(=O)[C@H](C)NC(=O)[C@H](CCCNC(=N)N)NC(=O)[C@@H](N)CSSC[C@@H](C(=O)O)NC1=O [P3, CRAYDENAC] (H-CRAYDENAC-OH; disulfide 1-9; N-terminus and C-terminus assumed) | 14.4 | 11.8 | 13.8 |  | 0.52 | 13.3 | 
4 | C[C@@H]1NC(=O)[C@H](CC(N)=O)NC(=O)[C@H](CCC(=O)O)NC(=O)[C@H](C)NC(=O)[C@H](Cc2ccc(O)cc2)NC(=O)[C@H](Cc2c[nH]c3ccccc23)NC(=O)[C@H](CCCNC(=N)N)NC(=O)[C@@H](N)CSSC[C@@H](C(=O)O)NC1=O [P5, CRWYAENAC] (H-CRWYAENAC-OH; disulfide 1-9; N-terminus and C-terminus assumed) | 0.36 | 0.22 | 0.65 |  | 17.01 | 0.41 | 
5 | C[C@@H]1NC(=O)[C@H](CC(N)=O)NC(=O)[C@H](C)NC(=O)[C@H](CC(=O)O)NC(=O)[C@H](Cc2ccc(O)cc2)NC(=O)[C@H](Cc2c[nH]c3ccccc23)NC(=O)[C@H](CCCNC(=N)N)NC(=O)[C@@H](N)CSSC[C@@H](C(=O)O)NC1=O [P6, CRWYDANAC] (H-CRWYDANAC-OH; disulfide 1-9; N-terminus and C-terminus assumed) | 1.21 | 7.99 | 3.83 |  | 1.61 | 4.34 | 
6 | C[C@@H]1NC(=O)[C@H](C)NC(=O)[C@H](CCC(=O)O)NC(=O)[C@H](CC(=O)O)NC(=O)[C@H](Cc2ccc(O)cc2)NC(=O)[C@H](Cc2c[nH]c3ccccc23)NC(=O)[C@H](CCCNC(=N)N)NC(=O)[C@@H](N)CSSC[C@@H](C(=O)O)NC1=O [P7, CRWYDEAAC] (H-CRWYDEAAC-OH; disulfide 1-9; N-terminus and C-terminus assumed) | 0.25 | 0.25 | 1.37 |  | 11.19 | 0.62 | 
7 | N=C(N)NCCC[C@H](N)C(=O)N[C@@H](Cc1c[nH]c2ccccc12)C(=O)N[C@@H](Cc1ccc(O)cc1)C(=O)N[C@@H](CC(=O)O)C(=O)N[C@@H](CCC(=O)O)C(=O)N[C@@H](CC(N)=O)C(=O)O [P9, RWYDEN] (H-RWYDEN-OH; N-terminus and C-terminus assumed) | 9.69 | 8.73 | 13.1 |  | 0.66 | 10.5 | 
8 | C[C@H](NC(=O)[C@H](CC(N)=O)NC(=O)[C@H](C)NC(=O)[C@H](CC(=O)O)NC(=O)[C@H](Cc1ccc(O)cc1)NC(=O)[C@H](Cc1c[nH]c2ccccc12)NC(=O)[C@@H](N)CCCNC(=N)N)C(=O)O [P10, RWYDANA] (H-RWYDANA-OH; N-terminus and C-terminus assumed) | 62.1 | 17.5 | 12.4 |  | 0.23 | 30.6 | 
9 | C[C@H](NC(=O)[C@H](CC(=O)O)NC(=O)[C@H](Cc1ccc(O)cc1)NC(=O)[C@H](Cc1c[nH]c2ccccc12)NC(=O)[C@@H](N)CCCNC(=N)N)C(=O)N[C@@H](CC(N)=O)C(=O)O [P11, RWYDAN] (H-RWYDAN-OH; N-terminus and C-terminus assumed) | 34.6 | 23.2 | 35.7 |  | 0.22 | 31.2 | 
10 | C[C@H](NC(=O)[C@H](CCC(=O)O)NC(=O)[C@H](CC(=O)O)NC(=O)[C@H](Cc1ccc(O)cc1)NC(=O)[C@H](Cc1c[nH]c2ccccc12)NC(=O)[C@@H](N)CCCNC(=N)N)C(=O)O [P12, RWYDEA] (H-RWYDEA-OH; N-terminus and C-terminus assumed) | 5.26 | 2.49 | 1.74 |  | 2.20 | 3.16 | 
11 | N=C(N)NCCC[C@H](N)C(=O)N[C@@H](Cc1c[nH]c2ccccc12)C(=O)N[C@@H](Cc1ccc(O)cc1)C(=O)N[C@@H](CC(=O)O)C(=O)N[C@@H](CCC(=O)O)C(=O)O [P13, RWYDE] (H-RWYDE-OH; N-terminus and C-terminus assumed) | 14.7 | 78.8 | 99.6 |  | 0.11 | 64.4 | 
12 | C[C@H](NC(=O)[C@H](CC(=O)O)NC(=O)[C@H](Cc1ccc(O)cc1)NC(=O)[C@H](Cc1c[nH]c2ccccc12)NC(=O)[C@@H](N)CCCNC(=N)N)C(=O)O [P14, RWYDA] (H-RWYDA-OH; N-terminus and C-terminus assumed) | 6.28 | 4.69 | 4.22 |  | 1.38 | 5.06 | 
13 | C[C@H](NC(=O)[C@H](Cc1ccc(O)cc1)NC(=O)[C@H](Cc1c[nH]c2ccccc12)NC(=O)[C@@H](N)CCCNC(=N)N)C(=O)N[C@@H](CCC(=O)O)C(=O)N[C@@H](CC(N)=O)C(=O)O [P16, RWYAEN] (H-RWYAEN-OH; N-terminus and C-terminus assumed) | 7.31 | 6.08 | 9.74 |  | 0.90 | 7.71 | 
14 | N=C(N)NCCC[C@H](N)C(=O)N[C@@H](Cc1c[nH]c2ccccc12)C(=O)N[C@@H](Cc1ccc(O)cc1)C(=O)N[C@@H](CC(=O)O)C(=O)NCCOCCOCCOCCOCCC(=O)N[C@@H](CCCCNC(=O)CN1CCN(CC(=O)O)CCN(CC(=O)O)CC1)C(=O)O [RWYD-PEG4-K-NOTA] (H-RWYD[PEG4]K(NOTA)-OH) |  |  |  |  |  |  | 0.642 ± 0.261
